According to patent US10988456B2, “O-aminoheteroaryl alkynyl-containing compound, preparation method therefor, and use thereof” (SHANGHAI INSTITUTE OF MATERIA MEDICA, CHINESE ACADEMY OF …, priority 2017, dated 2021):
“Also recorded” adds a separate entry of the source.

Legend:
[1] = molecular target: FGFR1 (Homo sapiens, UniProt P11362); assay: Inhibition of receptor tyrosine kinase activity at molecular level (ELISA, Poly(Glu,Tyr)4:1 substrate phosphorylation); assay type: biochemical; details: 10 nM compound; average of two independent experiments
[2] = molecular target: RET (Homo sapiens, UniProt P07949); assay: as above; assay type: biochemical
Procedure, shortened: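 Poly(Glu,Tyr)4:1-coated plates (20 μg/mL) were incubated with recombinant kinase, compound and 5 μM ATP (final) in HEPES pH 7.4 buffer with MgCl2/MnCl2/Na3VO4/DTT for 1 h at 37 °C. Phosphotyrosine was detected with PY99 and HRP anti-mouse IgG plus OPD at 490 nm. IC50 came from four-parameter regression.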

[3] = molecular target: KDR (Homo sapiens, UniProt P35968); assay: as above; assay type: biochemical; details: 10 nM compound; average of two independent experiments
[4] = test system: human gastric cancer SNU-16 xenografts; assay: Growth of subcutaneous xenografts of human gastric cancer SNU-16 in nude mice (HuFGFR267 study); assay type: in vivo; details: for relative tumor proliferation rate T/C: day 21; for Weight (g, mean ± SD): SNU-16 tumor-bearing mice
Description: The diameter of the subcutaneously implanted tumor in nude mice was measured by a vernier caliper. […] In the compound HuFGFR267 50 mg/kg group, the compound was formulated with 0.5% methylcellulose (MC) to the required concentration before use. […] The positive control drug AZD4547 was diluted to the required concentration with water for injection containing 1% Tween 80 before use. […] In the solvent control group, an equal amount of water for injection was administrated.

[5] = test system: RET signaling pathway in TT and BaF3/CCDC6-RET cells; assay: Western blotting of RET signaling pathway activation in cells; assay type: cell-based; details: compounds 2 hours; P-RET, P-AKT, P-ErK
Description: Detecting the Effect of Compounds on the Activation of RET Signaling Pathway in TT and BaF3/CCDC6-RET Cells by Western Blotting
The cells were seeded into a 12-well plate (250,000/well). After incubation for 18-24 hours, the compounds were added to react for 2 hours, and then the cells were collected and firstly washed once with cold PBS (containing 1 mmol sodium vanadate); then 1×SDS gel loading buffer (50 mmol Tris-HCl (pH 6.8), 100 mmol DTT, 2% SDS, 10% glycerol, 1 mmol sodium vanadate, 0.1% bromophenol blue) was added to lyse cells. The cell lysate was heated in a boiling water bath for 10 minutes, and then centrifuged at 12,000 rpm for 10 minutes at 4° C.
The supernatant was taken for SDS-PAGE electrophoresis (Mini-PROTEAN 3 Cell, Bio-Rad, Hercules, Calif., USA). After electrophoresis, the proteins were transferred to a nitrocellulose membrane using a semi-dry electrotransfer system (Amersham Life Sciences, Arlington Heights, Ill., USA). The nitrocellulose membrane was placed in a blocking solution (5% skim milk powder diluted in TBS containing 1 mmol sodium vanadate) for 2 hours at room temperature, and then the membrane was placed and reacted with a primary antibody at 4° C. overnight. […] The membrane was placed in a secondary antibody solution and reacted for 1-2 hours at room temperature. After the membrane was washed three times as above, the membrane was stained using ECL (Picece, Rockford, Ill.) reagent was used for staining and then developed.

[6] = test system: human lung cancer NCI-H1581 xenografts; assay: Growth of subcutaneous xenografts of human lung cancer NCI-H1581 in nude mice; assay type: in vivo; details: for Relative tumor volume RTV (mean ± SD): NCI-H1581, 50 mg/kg orally once a day; for Weight (g, mean ± SD): NCI-H1581 tumor-bearing mice, 50 mg/kg orally once a day
Description: The diameter of the subcutaneously implanted tumor in nude mice was measured by a vernier caliper. […] In the compound HuFGFR267 50 mg/kg group, the compound was formulated with 0.5% methylcellulose (MC) to the required concentration before use. The formulation of compound was prepared once a week, and orally administered once a day for 14 days. The positive control drug AZD4547 was diluted to the required concentration with water for injection containing 1% Tween 80 before use. The formulation of AZD4547 was prepared once a week, and orally administered once a day for 14 days. In the solvent control group, an equal amount of water for injection was administrated.

Chain of RET (P07949 29-1114): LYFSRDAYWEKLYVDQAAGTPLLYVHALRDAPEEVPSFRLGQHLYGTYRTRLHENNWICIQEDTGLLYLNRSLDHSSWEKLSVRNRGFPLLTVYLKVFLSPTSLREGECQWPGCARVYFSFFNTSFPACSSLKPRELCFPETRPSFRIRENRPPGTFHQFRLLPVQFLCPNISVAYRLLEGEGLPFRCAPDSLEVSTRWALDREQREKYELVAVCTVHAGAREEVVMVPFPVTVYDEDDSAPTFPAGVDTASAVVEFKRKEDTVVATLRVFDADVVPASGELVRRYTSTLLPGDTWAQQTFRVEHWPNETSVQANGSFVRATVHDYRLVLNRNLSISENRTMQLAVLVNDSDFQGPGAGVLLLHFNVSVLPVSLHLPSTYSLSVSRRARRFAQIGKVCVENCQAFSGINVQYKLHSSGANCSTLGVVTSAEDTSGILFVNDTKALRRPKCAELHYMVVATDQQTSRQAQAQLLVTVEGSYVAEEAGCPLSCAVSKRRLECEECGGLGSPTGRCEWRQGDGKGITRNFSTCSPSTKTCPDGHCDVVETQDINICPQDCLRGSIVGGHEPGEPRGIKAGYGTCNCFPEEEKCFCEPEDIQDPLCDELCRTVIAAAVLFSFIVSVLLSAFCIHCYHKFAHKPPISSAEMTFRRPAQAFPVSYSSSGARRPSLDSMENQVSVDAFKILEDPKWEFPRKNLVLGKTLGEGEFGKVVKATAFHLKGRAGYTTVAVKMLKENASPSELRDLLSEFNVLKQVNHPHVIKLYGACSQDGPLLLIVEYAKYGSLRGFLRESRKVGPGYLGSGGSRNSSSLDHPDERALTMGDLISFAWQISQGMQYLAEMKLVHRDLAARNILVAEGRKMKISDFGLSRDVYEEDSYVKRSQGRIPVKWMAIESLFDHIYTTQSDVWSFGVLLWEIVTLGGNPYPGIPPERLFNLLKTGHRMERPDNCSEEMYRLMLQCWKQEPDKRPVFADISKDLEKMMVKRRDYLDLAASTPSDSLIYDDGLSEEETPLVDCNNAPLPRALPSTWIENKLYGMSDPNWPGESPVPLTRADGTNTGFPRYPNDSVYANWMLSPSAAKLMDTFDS
Chain of KDR (P35968 20-1356): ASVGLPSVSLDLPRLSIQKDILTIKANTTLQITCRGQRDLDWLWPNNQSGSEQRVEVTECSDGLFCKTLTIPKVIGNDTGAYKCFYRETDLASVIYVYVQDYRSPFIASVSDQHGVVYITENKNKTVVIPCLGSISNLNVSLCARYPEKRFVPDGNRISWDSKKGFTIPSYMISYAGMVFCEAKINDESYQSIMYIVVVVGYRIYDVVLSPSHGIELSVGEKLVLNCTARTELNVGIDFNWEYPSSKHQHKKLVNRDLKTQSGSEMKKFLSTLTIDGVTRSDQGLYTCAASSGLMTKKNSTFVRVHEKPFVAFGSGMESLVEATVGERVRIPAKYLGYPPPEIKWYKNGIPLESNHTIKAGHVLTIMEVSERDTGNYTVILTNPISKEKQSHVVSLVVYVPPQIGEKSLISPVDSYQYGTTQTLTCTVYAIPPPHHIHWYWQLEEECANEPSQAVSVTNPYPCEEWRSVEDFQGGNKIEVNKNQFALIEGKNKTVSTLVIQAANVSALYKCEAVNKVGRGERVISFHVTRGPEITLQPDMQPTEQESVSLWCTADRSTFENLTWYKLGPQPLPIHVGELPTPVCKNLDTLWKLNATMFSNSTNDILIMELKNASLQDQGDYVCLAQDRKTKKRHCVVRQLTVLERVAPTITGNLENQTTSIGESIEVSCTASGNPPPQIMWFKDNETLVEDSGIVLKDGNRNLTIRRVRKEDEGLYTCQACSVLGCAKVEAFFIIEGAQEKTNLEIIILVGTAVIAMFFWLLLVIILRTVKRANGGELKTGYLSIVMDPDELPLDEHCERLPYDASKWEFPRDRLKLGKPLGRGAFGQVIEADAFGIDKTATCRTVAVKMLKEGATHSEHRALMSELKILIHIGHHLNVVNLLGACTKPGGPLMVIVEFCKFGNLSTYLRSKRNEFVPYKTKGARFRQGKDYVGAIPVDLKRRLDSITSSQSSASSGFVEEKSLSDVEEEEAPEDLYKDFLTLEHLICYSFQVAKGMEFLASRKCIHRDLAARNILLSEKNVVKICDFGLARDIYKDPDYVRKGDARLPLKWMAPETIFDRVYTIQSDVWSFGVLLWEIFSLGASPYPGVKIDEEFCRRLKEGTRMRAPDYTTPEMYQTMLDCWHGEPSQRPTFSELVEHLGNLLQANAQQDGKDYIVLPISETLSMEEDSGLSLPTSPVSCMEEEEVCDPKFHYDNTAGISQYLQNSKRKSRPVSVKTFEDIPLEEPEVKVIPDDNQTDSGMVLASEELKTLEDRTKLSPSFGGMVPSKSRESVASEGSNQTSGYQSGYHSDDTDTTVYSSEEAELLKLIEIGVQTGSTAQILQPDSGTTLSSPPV
Chain of FGFR1 (P11362 22-822): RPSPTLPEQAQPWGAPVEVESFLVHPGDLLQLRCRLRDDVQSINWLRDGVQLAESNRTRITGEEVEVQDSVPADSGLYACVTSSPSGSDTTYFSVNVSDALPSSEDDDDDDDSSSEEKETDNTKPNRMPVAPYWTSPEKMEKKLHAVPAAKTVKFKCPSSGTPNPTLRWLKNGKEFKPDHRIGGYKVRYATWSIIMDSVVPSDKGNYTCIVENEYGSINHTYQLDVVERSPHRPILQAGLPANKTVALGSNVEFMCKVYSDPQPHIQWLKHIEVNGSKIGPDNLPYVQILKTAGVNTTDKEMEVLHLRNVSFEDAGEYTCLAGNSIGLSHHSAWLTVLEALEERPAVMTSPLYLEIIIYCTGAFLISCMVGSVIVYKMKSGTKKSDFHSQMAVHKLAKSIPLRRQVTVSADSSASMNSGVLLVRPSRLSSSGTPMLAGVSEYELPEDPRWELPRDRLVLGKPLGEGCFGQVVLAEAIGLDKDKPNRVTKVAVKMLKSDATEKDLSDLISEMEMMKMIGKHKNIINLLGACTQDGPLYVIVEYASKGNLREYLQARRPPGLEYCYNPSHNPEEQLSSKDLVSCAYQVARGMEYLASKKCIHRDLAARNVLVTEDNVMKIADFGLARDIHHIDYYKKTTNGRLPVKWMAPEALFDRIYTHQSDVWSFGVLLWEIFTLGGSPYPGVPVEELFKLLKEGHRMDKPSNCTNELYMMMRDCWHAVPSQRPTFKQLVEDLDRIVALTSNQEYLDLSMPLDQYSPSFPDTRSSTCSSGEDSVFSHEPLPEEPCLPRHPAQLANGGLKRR

CN1CCN(Cc2ccc(NC(=O)c3ccc(Cl)c(C#Cc4cccnc4N)c3)cc2C(F)(F)F)CC1 [Example 1, 3-(2-aminopyridine-3-ethynyl)-4-chloro-N-(4-((4-methylpiperazin-1-yl)methylene)-3-(trifluoromethyl)phenyl)benzamide]
10 nM inhibition ratio FGFR1 [1]: 77.7
10 nM inhibition ratio RET ([2]; 10 nM compound, average of two independent experiments): 87.6
IC50 ([2]; measured twice, Mean ± SD): 1.4 ± 0.6 nM
10 nM inhibition ratio KDR [3]: 45.1
relative tumor proliferation rate T/C ([4]; SNU-16, 25 mg/kg orally once a day for 21 days): 18.55%
Relative tumor volume RTV (mean ± SD) ([4]; SNU-16, 25 mg/kg orally once a day, d0): 1.00 ± 0.00
Relative tumor volume RTV (mean ± SD) ([4]; SNU-16, 25 mg/kg orally once a day, d3): 1.74 ± 0.58
Relative tumor volume RTV (mean ± SD) ([4]; SNU-16, 25 mg/kg orally once a day, d7): 2.51 ± 0.93
Relative tumor volume RTV (mean ± SD) ([4]; SNU-16, 25 mg/kg orally once a day, d10): 3.13 ± 1.51
Relative tumor volume RTV (mean ± SD) ([4]; SNU-16, 25 mg/kg orally once a day, d14): 3.79 ± 1.93
Relative tumor volume RTV (mean ± SD) ([4]; SNU-16, 25 mg/kg orally once a day, d17): 3.97 ± 1.58
Relative tumor volume RTV (mean ± SD) ([4]; SNU-16, 25 mg/kg orally once a day, d21): 4.35 ± 2.03
relative tumor proliferation rate T/C ([4]; SNU-16, 50 mg/kg orally once a day for 21 days): 11.66%
Relative tumor volume RTV (mean ± SD) ([4]; SNU-16, 50 mg/kg orally once a day, d0): 1.00 ± 0.00
Relative tumor volume RTV (mean ± SD) ([4]; SNU-16, 50 mg/kg orally once a day, d3): 1.11 ± 0.42
Relative tumor volume RTV (mean ± SD) ([4]; SNU-16, 50 mg/kg orally once a day, d7): 0.83 ± 0.49
Relative tumor volume RTV (mean ± SD) ([4]; SNU-16, 50 mg/kg orally once a day, d10): 1.26 ± 0.71
Relative tumor volume RTV (mean ± SD) ([4]; SNU-16, 50 mg/kg orally once a day, d14): 1.89 ± 1.57
Relative tumor volume RTV (mean ± SD) ([4]; SNU-16, 50 mg/kg orally once a day, d17): 2.02 ± 1.63
Relative tumor volume RTV (mean ± SD) ([4]; SNU-16, 50 mg/kg orally once a day, d21): 2.73 ± 2.82
body weight of tumor-bearing mice (in words) ([4]; SNU-16, HuFGFR267 50 mg/kg and 25 mg/kg groups): no significant change; also recorded: did not change significantly
animal deaths during the experiment ([4]; SNU-16, each group (HuFGFR267 50 and 25 mg/kg, AZD4547 12.5 mg/kg)): no mice died
Weight (g, mean ± SD) ([4]; 25 mg/kg orally once a day, d0): 18.6 ± 1.6 g
Weight (g, mean ± SD) ([4]; 25 mg/kg orally once a day, d3): 19.4 ± 1.7 g
Weight (g, mean ± SD) ([4]; 25 mg/kg orally once a day, d7): 20.0 ± 1.8 g
Weight (g, mean ± SD) ([4]; 25 mg/kg orally once a day, d10): 20.9 ± 1.8 g
Weight (g, mean ± SD) ([4]; 25 mg/kg orally once a day, d14): 21.3 ± 1.7 g
Weight (g, mean ± SD) ([4]; 25 mg/kg orally once a day, d17): 21.2 ± 1.6 g
Weight (g, mean ± SD) ([4]; 25 mg/kg orally once a day, d21): 21.4 ± 1.8 g
Weight (g, mean ± SD) ([4]; 50 mg/kg orally once a day, d0): 18.9 ± 1.9 g
Weight (g, mean ± SD) ([4]; 50 mg/kg orally once a day, d3): 19.4 ± 2.2 g
Weight (g, mean ± SD) ([4]; 50 mg/kg orally once a day, d7): 19.9 ± 2.4 g
Weight (g, mean ± SD) ([4]; 50 mg/kg orally once a day, d10): 20.6 ± 2.3 g
Weight (g, mean ± SD) ([4]; 50 mg/kg orally once a day, d14): 20.5 ± 2.2 g
Weight (g, mean ± SD) ([4]; 50 mg/kg orally once a day, d17): 20.8 ± 2.3 g
Weight (g, mean ± SD) ([4]; 50 mg/kg orally once a day, d21): 20.7 ± 2.2 g
inhibition of RET phosphorylation and downstream signaling pathway (Western blot, FIG. 1) [5]: inhibited RET phosphorylation and the downstream signaling pathway
body weight of tumor-bearing mice (in words) ([6]; NCI-H1581, 50 mg/kg orally once a day for 14 days): no significant change
relative tumor proliferation rate T/C ([6]; NCI-H1581, 50 mg/kg orally once a day for 14 days, 14th day): 3.77%
Relative tumor volume RTV (mean ± SD) ([6]; d0): 1.00 ± 0.00
Relative tumor volume RTV (mean ± SD) ([6]; d3): 1.28 ± 0.40
Relative tumor volume RTV (mean ± SD) ([6]; d7): 1.33 ± 0.74
Relative tumor volume RTV (mean ± SD) ([6]; d10): 2.02 ± 1.10
Relative tumor volume RTV (mean ± SD) ([6]; d14): 2.16 ± 1.41
animal deaths during the experiment ([6]; NCI-H1581, each group (HuFGFR267 50 mg/kg, AZD4547 12.5 mg/kg)): no mice died
Weight (g, mean ± SD) ([6]; d0): 18.1 ± 1.2 g
Weight (g, mean ± SD) ([6]; d3): 19.2 ± 1.0 g
Weight (g, mean ± SD) ([6]; d7): 19.7 ± 1.0 g
Weight (g, mean ± SD) ([6]; d10): 20.2 ± 1.2 g
Weight (g, mean ± SD) ([6]; d14): 20.0 ± 1.3 g
